From publication PMC10138721, “Investigation of the Compatibility between Warheads and Peptidomimetic Sequences of Protease Inhibitors—A Comprehensive Reactivity and Selectivity Study” (International Journal of Molecular Sciences, 2023)
“Also recorded” adds a separate entry of the source. Read-outs that look alike come from different tables or passages of the source.

Tests used:
[1] = Reactivity test of warhead probes with PhEtSH without base (NMR/LC-MS); type: physicochemical; settings: non-basic conditions; for reactivity with PhEtSH (protonated thiol), in words: DMSO-d6, up to 240 min
From the text: (§1) To investigate the reactivity between the different warheads towards the three classes of proteases (serine, threonine and cysteine proteases), their behavior in model systems under the same reaction conditions (solvent, nucleophile and base) using either NMR or LC-MS analysis was investigated. We used reactivity probes with a Boc-L-Leu-(warhead) sequence. Leucin was chosen as a P1 amino acid to minimize influences of the side chain and due to synthetic accessibility. 2-Phenylethanethiol was used as a model nucleophile to mimic the thiol moiety of cysteine proteases, and sodium ethoxide was used as a serine/threonine replacement. DMSO-d6 was used as solvent. Under these conditions, the nucleophile is deprotonated, simulating the activated serine or threonine in the catalytic triad of serine and threonine proteases, while ethanol as protonated alcohol species turned out to be unreactive in preliminary test reactions. The reactivity tests using 2-phenylethanthiol were carried out in the presence and absence of triethylamine as a base. This allowed for a reactivity comparison of the warheads towards protonated and deprotonated nucleophilic thiol species. Generating a deprotonated thiol species in the presence of triethylamine simulates the deprotonated cysteine in the catalytic dyad of cysteine proteases. Scheme 8 illustrates the reaction of the reactivity assay with both model nucleophiles and the vinyl sulfone moiety 109 as an example.
(§2) The reactivity tests of all Michael acceptors, 109, 110, 111 and 112, the α-ketobenzothiazole 115 and nitrile 117 were investigated using an NMR-based analysis method, while the β-lactam 108 reactivity was investigated via LC-MS, due to its lack of proton signals, which could be used for evaluation of the reactivity in the ^1H-NMR studies, and the irreversible reaction mechanism, which allowed the LC-MS analysis. […] Formation of the expected adducts with the nitrile 117 (PhEtSH/PhEtS^–/EtONa), the α-ketobenzothiazole 115 (PhEtSH/PhEtS^–) and the nitroalkene 111 (EtONa) could not be observed. This may have been due to the covalent reversible reaction mechanism of the nitrile and α-ketobenzothiazole and the overall difficult ionization of the specific compounds by an electron spray ionization mass spectrometer.
(§3) Method A (NMR): ^1H-NMR spectra were recorded for the respective warhead and nucleophile mixture, before the addition of the nucleophile (0 min) and after 5, 30, 60, 120 and 240 min reaction time. For quantification, the double bond-signals (doublet/doublet of doublets, around 7.4–6.7 ppm) of the Michael acceptors were integrated relative to 1,3-dioxolane as an internal standard. The acetal CH2 signal of the internal standard at 5.3 ppm was used as a reference.
(§4) The α-ketobenzothiazole 115 and nitrile 117 were similarly analyzed by ^13C-NMR. Therefore, the corresponding ^13C-leucin derivates were synthesized (Scheme 7). Quantifications of the reactions were carried out by using the integral of the carbonyl carbon atom signal at 195 ppm for the α-ketobenzothiazole and 120 ppm for the nitrile moiety. The reference signal of DMSO-d6 was set to 39.52 ppm.
(§5) Method B (LC-MS): The reactivity of the β-lactam test compound 108 with the nucleophiles was investigated using an LC-MS-based method. To quantify the conversion, the AUCs were determined at 254 nm. In Figure 3, the UV spectra of the test reaction of the β-lactam 108 with EtONa are shown exemplarily.
(§6) The β-lactam 108 (0.07 mmol, 1eq) was solved in DMSO-d6 (0.5 mL). The reaction was measured in time intervals before (0 min), 5, 30, 60, 120 and 240 mins after the addition of the corresponding nucleophile (PhEtSH/EtONa, 2 eq) in presence of Et3N (2 eq) or not. In case of PhEtSH as the nucleophile the reaction got quenched by pouring 10 µL of the reaction mixture into a solution of 25 mM TRIS (pH 7.00) and 27 mM maleimide in a 1:1 mixture of acetonitrile/H2O (990 µL). For the reaction with EtONa as the nucleophile, the reaction solution […]

[2] = Reactivity test of warhead probes with PhEtSH + Et3N (NMR/LC-MS); type: physicochemical; settings: for maximum conversion with PhEtSH + Et3N: DMSO-d6, after 240 min; for reactivity with PhEtSH + Et3N (deprotonated thiol), in words: DMSO-d6, up to 240 min; for time to full conversion with PhEtSH + Et3N: DMSO-d6
From the text: as §1, §2, §3, §4, §5, §6

[3] = Reactivity test of warhead probes with EtONa (NMR/LC-MS); type: physicochemical; settings: for reactivity with EtONa, in words: DMSO-d6, up to 240 min; for time to full conversion with EtONa: DMSO-d6
From the text: as §1, §2, §3, §4, §5, §6

proteasome β5-subunit = biological target: T1, proteasome β5-subunit (Homo sapiens, UniProt P20618+P28074); experiment: Fluorometric inhibition assay, proteasome β5-subunit; type: biochemical
T1 construct: purchased Enzo Life sciences

human cathepsin S (CatS) = biological target: T2, human cathepsin S (CatS) (Homo sapiens, UniProt P25774); experiment: Fluorometric inhibition assay, cathepsin S; type: biochemical
T2 construct: purchased Sigma Aldrich

rhodesain = rhodesain (Trypanosoma brucei rhodesiense, UniProt Q95PM0); experiment: Fluorometric inhibition assay, rhodesain; type: biochemical; settings: for Ki: Rhodesain
[4] = biological target: T3, urokinase-type plasminogen activator (uPA) (Homo sapiens, UniProt P00749); experiment: Fluorometric inhibition assay, uPA; type: biochemical
T3 construct: purchased Sigma Aldrich

[5] = biological target: SARS-CoV-2 main protease (M^pro) (Severe acute respiratory syndrome coronavirus 2, UniProt P0DTD1); experiment: Fluorometric (FRET) inhibition assay, SARS-CoV-2 M^pro; type: biochemical; settings: initial screen at 20 µM, cut-off 80% inhibition
[6] = initial screen at 20 µM, cut-off 80% inhibition

T2 sequence (P25774 115-331): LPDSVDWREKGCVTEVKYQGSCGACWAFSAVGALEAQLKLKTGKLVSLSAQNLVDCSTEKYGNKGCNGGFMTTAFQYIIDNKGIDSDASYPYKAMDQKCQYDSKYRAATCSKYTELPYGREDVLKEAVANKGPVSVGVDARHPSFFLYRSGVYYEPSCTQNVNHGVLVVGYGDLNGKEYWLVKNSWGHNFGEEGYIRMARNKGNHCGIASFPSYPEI
Sequence of rhodesain (Q95PM0 entry or part of it): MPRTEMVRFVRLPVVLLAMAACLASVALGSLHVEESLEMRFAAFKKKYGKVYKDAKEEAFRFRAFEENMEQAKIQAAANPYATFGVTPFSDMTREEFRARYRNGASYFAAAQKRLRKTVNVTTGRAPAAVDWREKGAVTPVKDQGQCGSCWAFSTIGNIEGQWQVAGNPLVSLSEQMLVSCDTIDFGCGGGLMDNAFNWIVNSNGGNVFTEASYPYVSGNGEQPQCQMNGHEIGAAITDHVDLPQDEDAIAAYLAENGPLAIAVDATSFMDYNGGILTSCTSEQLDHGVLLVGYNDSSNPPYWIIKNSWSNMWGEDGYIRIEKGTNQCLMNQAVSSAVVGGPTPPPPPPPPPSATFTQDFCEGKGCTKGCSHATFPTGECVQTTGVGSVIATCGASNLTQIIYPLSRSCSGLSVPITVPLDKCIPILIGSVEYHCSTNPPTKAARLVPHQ

CC(C)CC(/C=C/[N+](=O)[O-])NC(=O)OC(C)(C)C (stereo not drawn) [compound 111]
reactivity with PhEtSH (protonated thiol), in words [1]: conversion was not observed
maximum conversion with PhEtSH + Et3N [2]: 82%
reactivity with PhEtSH + Et3N (deprotonated thiol), in words [2]: high reactivity
conversion with EtONa ([3]; DMSO-d6, after 240 min): 84%

CC(C)C[C@@H](C=C[N+](=O)[O-])NC(=O)[C@H](Cc1ccccc1)NC(=O)c1cnccn1 [compound 59]
inhibition of the proteasome β5-subunit, in words (proteasome β5-subunit): None
Ki (human cathepsin S (CatS); Ki, CatS): 619 ± 54 nM
Ki (rhodesain): 2 ± 5 nM

CC(C)CC(/C=C/S(=O)(=O)c1ccccc1)NC(=O)OC(C)(C)C (stereo not drawn) [compound 109]
reactivity with PhEtSH (protonated thiol), in words [1]: conversion was not observed; also recorded: missing reactivity
time to full conversion with PhEtSH + Et3N [2]: 60 min
reactivity with PhEtSH + Et3N (deprotonated thiol), in words [2]: high reactivity
conversion with EtONa ([3]; DMSO-d6, after 240 min): 70%

CC(C)CC(NC(=O)C(Cc1ccccc1)NC(=O)c1cnccn1)C(=O)c1nc2ccccc2s1 (stereo not drawn) [compound 62]
inhibition of the proteasome β5-subunit, in words (proteasome β5-subunit): None and no inhibition

CC(C)CC(NC(=O)OC(C)(C)C)[13C](=O)c1nc2ccccc2s1 (stereo not drawn) [compound 115]
conversion with PhEtSH ([1]; DMSO-d6, after 240 min): 18%
reactivity with PhEtSH (protonated thiol), in words [1]: did indeed react
conversion with PhEtSH + Et3N ([2]; DMSO-d6, time not stated): around 30%
reactivity with PhEtSH + Et3N (deprotonated thiol), in words [2]: strong reactivity
maximum conversion with EtONa ([3]; DMSO-d6, maximum reached after 60 min): 37%
reactivity with EtONa, in words [3]: strong reactivity

CC(C)C[C@H](NC(=O)OC(C)(C)C)[13C](N)=O [compound 116]
time until equilibrium was reached with PhEtSH ([1]; DMSO-d6): 5 min

CC(C)CC(C#N)NC(=O)C(Cc1ccccc1)NC(=O)c1cnccn1 (stereo not drawn) [compound 74]
inhibition of the proteasome β5-subunit, in words (proteasome β5-subunit): None and no inhibition and missing inhibition
Ki (human cathepsin S (CatS); Ki, CatS): 238 ± 23 nM
Ki (rhodesain): 560 ± 267 nM

CC(C)CC(/C=C(\F)S(=O)(=O)c1ccccc1)NC(=O)OC(C)(C)C (stereo not drawn) [compound 110]
reactivity with PhEtSH (protonated thiol), in words [1]: conversion was not observed; also recorded: missing reactivity
maximum conversion with PhEtSH + Et3N [2]: 86%
reactivity with PhEtSH + Et3N (deprotonated thiol), in words [2]: high reactivity
reactivity with EtONa, in words [3]: No conversion

CC(C)C[C@@H]([13C]#N)NC(=O)OC(C)(C)C [compound 117]
conversion with PhEtSH ([1]; DMSO-d6, time not stated): 7%
reactivity with PhEtSH (protonated thiol), in words [1]: did indeed react
reactivity with PhEtSH + Et3N (deprotonated thiol), in words [2]: Every warhead except the β-lactam 108 and the nitrile 117 reacted; also recorded: no reaction
conversion with EtONa ([3]; DMSO-d6, at 5 min): 10%

CCOC(=O)/C=C/C(=O)[C@H](CC(C)C)NC(=O)[C@H](Cc1ccccc1)NC(=O)c1cnccn1 [compound 68]
inhibition of the proteasome β5-subunit, in words (proteasome β5-subunit): None
activity against CatS, in words (human cathepsin S (CatS)): essentially inactive
Ki (rhodesain): 9 ± 1 nM
kinact (rhodesain; read-out: kinact, Rhodesain): 0.006 ± 0.001 s⁻¹

CC(=O)NCC(=O)NC(C(=O)N[C@@H](C)C(=O)N[C@@H](CCCNC(=N)N)C(=O)c1nc2ccccc2s1)[C@H](C)O (stereo partly drawn) [compound 103]
Ki ([4]; Table S1; a) calculated from IC50 with Cheng–Prusoff, n.a. = not active (<80% inhibition at 20 µM), read-out: Ki, uPA): 141 ± 27 nM
Ki ([4]; calculated from Ki, –log10(Ki/M), read-out: pKi, uPA inhibition (converted)): 126 nM
activity against uPA, in words [4, 6]: active; also recorded: displayed inhibitory activity
inhibition of the proteasome β5-subunit, in words (proteasome β5-subunit; [6]): not inhibited
activity against CatS, in words (human cathepsin S (CatS); [6]): not inhibited; also recorded: not active at 20 µM
activity against M^pro, in words [5]: not inhibited
activity against rhodesain, in words (rhodesain; [6]): not inhibited; also recorded: inactive

CC(C)C[C@H](NC(=O)OC(C)(C)C)C(=O)N[C@H]1CN(c2ccccc2)C1=O [compound 108]
reactivity with PhEtSH (protonated thiol), in words [1]: conversion was not observed
reactivity with PhEtSH + Et3N (deprotonated thiol), in words [2]: Every warhead except the β-lactam 108 and the nitrile 117 reacted
time to full conversion with EtONa [3]: 60 min
reactivity with EtONa, in words [3]: complete conversion; also recorded: strong reactivity

CC(C)C[C@@H](/C=C(\F)S(=O)(=O)c1ccccc1)NC(=O)[C@H](Cc1ccccc1)NC(=O)c1cnccn1 [compound 55]
inhibition of the proteasome β5-subunit, in words (proteasome β5-subunit): None
Ki (human cathepsin S (CatS); Ki, CatS): 934 ± 138 nM
Ki (human cathepsin S (CatS); pKi, Cathepsin S inhibition): 1000 nM
Ki (rhodesain): 462 ± 39 nM

CCOC(=O)/C=C/C(=O)C(CC(C)C)NC(=O)OC(C)(C)C (stereo not drawn) [compound 112]
conversion with PhEtSH ([1]; DMSO-d6, after 240 min): 92%
reactivity with PhEtSH (protonated thiol), in words [1]: did indeed react; also recorded: high reactivity
time to full conversion with PhEtSH + Et3N [2]: 5 min
reactivity with PhEtSH + Et3N (deprotonated thiol), in words [2]: high reactivity
time to full conversion with EtONa [3]: 5 min
reactivity with EtONa, in words [3]: unspecific conversion

CC(C)C[C@H](NC(=O)[C@H](Cc1ccccc1)NC(=O)c1cnccn1)C(=O)N[C@H]1CN(c2ccccc2)C1=O [compound 72]
inhibition of the proteasome β5-subunit, in words (proteasome β5-subunit): None and did not inhibit

COC(=O)[C@H](C[C@@H]1CCNC1=O)NC(=O)OC(C)(C)C [compound 85]
inhibition of the proteasome β5-subunit, in words (proteasome β5-subunit; [6]): None
